Laboratory results as given in PMC3914206.

Columns and labels:
[1] = biological target: T1, panel of 442 kinases (Homo sapiens, UniProt Q9H2K8); assay type: binding; conditions: kinase TAOK3; compound concentration 10 µM
T1 construct: purchased KINOMEscan
T1 sequence (Q9H2K8 1-898): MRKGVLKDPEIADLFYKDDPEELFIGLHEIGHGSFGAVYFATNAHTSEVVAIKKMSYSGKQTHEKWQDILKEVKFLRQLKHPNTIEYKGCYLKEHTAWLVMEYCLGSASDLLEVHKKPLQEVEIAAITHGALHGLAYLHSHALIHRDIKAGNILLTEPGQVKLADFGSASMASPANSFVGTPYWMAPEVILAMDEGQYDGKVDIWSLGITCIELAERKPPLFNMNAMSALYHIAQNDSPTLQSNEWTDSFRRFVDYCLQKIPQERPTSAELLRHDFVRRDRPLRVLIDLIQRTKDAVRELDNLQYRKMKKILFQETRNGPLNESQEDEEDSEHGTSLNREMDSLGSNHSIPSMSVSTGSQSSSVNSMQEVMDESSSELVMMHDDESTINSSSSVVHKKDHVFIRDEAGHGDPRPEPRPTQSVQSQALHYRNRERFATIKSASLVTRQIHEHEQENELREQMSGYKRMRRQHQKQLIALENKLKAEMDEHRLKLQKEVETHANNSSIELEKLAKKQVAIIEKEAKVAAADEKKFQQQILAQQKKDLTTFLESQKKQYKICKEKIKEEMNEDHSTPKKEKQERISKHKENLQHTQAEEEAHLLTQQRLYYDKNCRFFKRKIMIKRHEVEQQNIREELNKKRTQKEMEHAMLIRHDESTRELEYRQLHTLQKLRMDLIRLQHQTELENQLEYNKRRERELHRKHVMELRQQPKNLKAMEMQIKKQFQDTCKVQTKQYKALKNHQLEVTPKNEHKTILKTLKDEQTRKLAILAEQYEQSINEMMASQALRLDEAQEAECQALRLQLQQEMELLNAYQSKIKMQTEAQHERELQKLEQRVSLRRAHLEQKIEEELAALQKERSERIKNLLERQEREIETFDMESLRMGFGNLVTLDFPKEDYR
Excerpt: (§1) We assessed the selectivity of members of this scaffold using the KINOMEscan methodology across a near comprehensive panel of 442 kinases [[18,27]].

[2] = biological target: T2, panel of 442 kinases (Homo sapiens, UniProt P53778); assay type: binding; conditions: Compound Concentration 10 µM
T2 construct: purchased KINOMEscan
T2 sequence (P53778 1-367): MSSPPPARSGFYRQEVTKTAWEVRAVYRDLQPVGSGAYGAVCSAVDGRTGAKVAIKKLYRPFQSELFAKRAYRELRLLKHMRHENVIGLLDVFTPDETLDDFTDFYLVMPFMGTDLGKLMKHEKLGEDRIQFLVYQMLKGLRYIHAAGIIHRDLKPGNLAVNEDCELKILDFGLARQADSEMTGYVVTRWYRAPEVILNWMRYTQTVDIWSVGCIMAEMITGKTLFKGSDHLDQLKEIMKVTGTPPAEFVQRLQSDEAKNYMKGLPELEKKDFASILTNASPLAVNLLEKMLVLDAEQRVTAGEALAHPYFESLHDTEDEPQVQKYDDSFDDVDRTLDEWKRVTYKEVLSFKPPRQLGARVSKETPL
Excerpt: as §1

SMILES	% Ctrl, TAOK3 [1]	KINOMEscan: p38-gamma [2]
COc1cc(C(=O)N2CCC(N3CCN(C)CC3)CC2)ccc1Nc1ncc2c(n1)N(C1CCCC1)c1ccccc1C(=O)N2C [Compound 25, 11-cyclopentyl-2-((2-methoxy-4-(4-(4-methylpiperazin-1-yl)piperidine-1-carbonyl)phenyl)amino)-5-methyl-5H-benzo[e]pyrimido[5,4-b][1,4]diazepin-6(11H)-one]	100 % Ctrl	88
COc1cc(C(=O)N2CCC(N3CCN(C)CC3)CC2)ccc1Nc1ncc2c(n1)N1CCc3cccc(c31)C(=O)N2C [Compound 24]	100 % Ctrl	
COc1cc(C(=O)N2CCC(N3CCN(C)CC3)CC2)ccc1Nc1ncc2c(n1)N(C)c1ccccc1C(=O)N2C [15 (LRRK2-IN-1)]	24 % Ctrl	76
CCOc1cc(C(=O)N2CCC(N3CCN(C)CC3)CC2)ccc1Nc1ncc2c(n1)N(C1CCCC1)c1ccccc1C(=O)N2C [Compound 26]	82 % Ctrl	32
